Test results taken from patent US11130780B2, “Inhibitors of growth factor activation enzymes” (Washington University, priority 2015, dated 2021).
Residues, ends and D or L forms follow the SMILES beside them. *: point of attachment. ACC = NC(=O)Cc1cc(=O)oc2cc(N*)ccc12

Tests used:
Format in all cases: biochemical
[1] = target: T1, HGFA (Homo sapiens, UniProt Q04756); assay: P1 substrate specificity using Ac-Ala-Arg-Leu-P1-ACC individual substrate library, HGFA; conditions: substrate 5 μM; best amino acid set to 100%
T1 sequence (Q04756 408-655 limits assumed): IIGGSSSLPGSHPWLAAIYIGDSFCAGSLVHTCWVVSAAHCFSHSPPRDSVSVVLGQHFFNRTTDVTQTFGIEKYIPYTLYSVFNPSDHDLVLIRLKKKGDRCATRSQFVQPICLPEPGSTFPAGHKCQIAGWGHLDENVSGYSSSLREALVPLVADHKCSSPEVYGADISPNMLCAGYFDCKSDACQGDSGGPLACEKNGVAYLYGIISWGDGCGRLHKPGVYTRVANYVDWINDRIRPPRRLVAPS
T1 sequence (Q04756 373-407 partner limits assumed): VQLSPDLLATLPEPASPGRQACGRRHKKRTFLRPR
Experimental: (§1) HFGA enzyme was diluted in the assay buffer (0.15 M NaCl, 0.025 M Tris, 0.005 M CaCl2, pH=8.0) to the final concentration of 10-20 nM (depending of sublibrary) and incubated at 25° C. for 30 minutes before added to a substrate.
(§2) The protocol for both enzymes activation and incubation are as the same as in HyCoSuL screening. The P1 individual substrate library was used at the final concentration of 5 μM. The total time of the assay was 30 min, however only linear portions of the progress curve (5-15 minutes) were used for velocity (RFU/s) calculations. Each screening for hepsin either HGFA was repeated 3-times and the average value for each measurement was used to create the substrate specificity matrix.

[2] = target: T2, hepsin (Homo sapiens, UniProt P05981); assay: P1 substrate specificity using Ac-Ala-Arg-Leu-P1-ACC individual substrate library, hepsin; conditions: substrate 5 μM; best amino acid set to 100%
T2 construct: purchased R&D Systems 4776-SE-010
Experimental: (§3) Recombinant human hepsin (10 μg in 20 uL, 4776-SE-010, R&D Systems) was added to the 100 μL of activation buffer (0.1 M Tris, 0.15 M NaCl, 0.01 M CaCl2, 0.05% TRITON-X, pH=8.0) and incubated at 37° C. for 24 hours (hepsin concentration in activation buffer 2 μM). Once activated hepsin was diluted in assay buffer (0.05 M Tris, pH=9.0) to the final concentration of 4 nM and incubated at 37° C. for 15 minutes before added to a substrate.
as §2

[3] = target: T2, hepsin; assay: P4-P2 substrate specificity using HyCoSuL, hepsin; design: concentration or dose not given beside the values; conditions: HyCoSuL substrate library; for P2 Position % Activity Hepsin: amino acid fixed at P2 position; for P3 Position % Activity Hepsin: amino acid fixed at P3 position; for P4 Position % Activity Hepsin: amino acid fixed at P4 position
Experimental: (§4) Each of the P4, P3, and P2 sublibraries were screened at the 100 μM concentration with hepsin either HGFA in a 100 μL final volume per well (99 μL of protease in buffer+1 μL of 10 mM substrates mixture). The total time of the assay was 30 minutes, however only linear portions of the progress curve (5-15 minutes) were used for velocity (RFU/s) calculations. Each sublibrary screening was repeated at least 3-times and the average value calculated from each measurement was used to create the substrate specificity matrix—the best recognized amino acid in each position was set to 100%, and other amino acids were adjusted accordingly.
as §3

[4] = target: T1, HGFA; assay: P4-P2 substrate specificity using HyCoSuL, HGFA; design: P3 Position % Activity HGFA / P2 Position % Activity HGFA: concentration or dose not given beside the values; P4 Position % Activity HGFA: tested at 100 µM; conditions: HyCoSuL substrate library; for P2 Position % Activity HGFA: amino acid fixed at P2 position; for P3 Position % Activity HGFA: amino acid fixed at P3 position; for P4 Position % Activity HGFA: amino acid fixed at P4 position
Experimental: as §4, §1

T2 sequence (P05981 163-417 limits assumed): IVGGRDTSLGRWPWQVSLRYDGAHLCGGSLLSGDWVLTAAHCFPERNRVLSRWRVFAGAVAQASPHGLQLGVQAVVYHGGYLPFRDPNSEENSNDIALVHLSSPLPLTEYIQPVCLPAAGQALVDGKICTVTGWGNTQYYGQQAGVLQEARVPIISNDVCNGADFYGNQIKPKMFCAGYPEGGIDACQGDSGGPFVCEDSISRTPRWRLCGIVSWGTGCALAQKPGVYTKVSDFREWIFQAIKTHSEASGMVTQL
T2 sequence (P05981 45-162 partner limits assumed): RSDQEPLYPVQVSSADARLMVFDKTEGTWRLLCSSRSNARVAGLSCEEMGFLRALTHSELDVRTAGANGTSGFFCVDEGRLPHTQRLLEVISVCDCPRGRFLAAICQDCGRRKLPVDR

Row | % activity, P1 position, HGFA [1] | % activity, P1 position, Hepsin [2] | P2 Position % Activity Hepsin [3] | P3 Position % Activity Hepsin [3] | P4 Position % Activity Hepsin [3] | P2 Position % Activity HGFA [4] | P3 Position % Activity HGFA [4] | P4 Position % Activity HGFA [4] | Molecule
1 | 100.00% | 100.00% | 57.23% | 70.75% | 80.32% | 2.08% | 43.98% | 23.62% | CC(=O)N[C@@H](C)C(=O)N[C@@H](CCCNC(=N)N)C(=O)N[C@@H](CC(C)C)C(=O)N[C@@H](CCCNC(=N)N)C(=O)Nc1ccc2c(CC(N)=O)cc(=O)oc2c1 [Ac-Ala-Arg-Leu-Arg-ACC] (Ac-ARLR-{ACC})
2 | 0.00% | 0.00% | 0.00% | 48.09% | 18.44% | 0.00% | 9.84% | 7.11% | D-Ala
3 | 0.00% | 0.00% | 0.00% | 38.75% | 18.48% | 0.00% | 15.16% | 7.38% | D-Asn
4 | 0.00% | 0.05% | 0.00% | 17.18% | 1.98% | 0.00% | 5.37% | 2.25% | D-Asp
5 | 0.00% | 0.00% | 0.00% | 97.80% | 20.13% | 0.00% | 13.84% | 8.03% | D-Gln
6 | 0.00% | 0.00% | 0.00% | 34.55% | 2.98% | 0.00% | 3.61% | 2.62% | D-Glu
7 | 0.00% | 0.00% | 0.00% | 20.14% | 24.76% | 0.00% | 7.08% | 10.56% | D-Leu
8 | 0.00% | 0.23% | 0.00% | 64.56% | 49.84% | 0.00% | 21.11% | 17.66% | D-Lys
9 | 0.00% | – | 0.00% | 24.92% | 13.15% | 0.00% | 15.22% | 8.13% | D-Phe
10 | 0.00% | 1.08% | 0.00% | 38.88% | 20.45% | 0.00% | 4.96% | 10.30% | D-Pro
11 | 0.00% | 0.02% | 11.55% | 54.84% | 21.84% | 0.00% | 10.86% | 7.94% | D-Ser
12 | 0.00% | 0.24% | 0.00% | 36.69% | 25.74% | 0.00% | 6.45% | 8.61% | D-Thr
13 | 0.00% | 0.50% | 0.00% | 24.90% | 1.48% | 0.00% | 87.59% | 7.65% | D-Trp
14 | 0.00% | 0.23% | 0.00% | 29.94% | 12.66% | 0.00% | 17.32% | 10.09% | D-Tyr
15 | 0.00% | 0.42% | 32.27% | 29.53% | 36.68% | 6.32% | 13.41% | 6.44% | L-Cit
16 | 0.00% | 0.03% | 10.01% | 48.71% | 35.65% | 1.49% | 24.27% | 13.31% | L-Dap
17 | 0.00% | 0.00% | 38.67% | 4.70% | 37.81% | 3.95% | 2.18% | 10.66% | L-Hyp
18 | 0.00% | 0.00% | 11.40% | 68.16% | 22.86% | 1.68% | 16.63% | 6.64% | L-Met(O)
19 | 0.00% | 0.07% | 62.04% | 24.09% | 40.93% | 45.52% | 19.15% | 11.76% | L-Nle
20 | 0.00% | 0.14% | 58.40% | 25.85% | 41.99% | 39.80% | 17.60% | 11.78% | L-Nva
21 | 0.00% | 0.00% | 78.48% | 79.70% | 84.52% | 0.00% | 54.04% | 20.23% | L-Orn
22 | 0.00% | 0.24% | 57.96% | 47.00% | 56.24% | 5.83% | 100.00% | 22.07% | L-hArg
